{
  "source": "patent EP1285919A1",
  "about": "“C10 Carbonate substituted taxanes as antitumor agents” (Florida State University Research Foundation, Inc., priority 2001, dated 2003)",
  "data": [
    {"system": "HCT116", "test": "In vitro cytotoxicity, cell colony formation assay", "assay_type": "cell-based", "details": "HCT116; 72 h with drug, colonies counted after 7 days; concentration producing 50% inhibition of colony formation; read-out: IN VITRO ID 50", "procedure": "In Vitro cytotoxicity measured by the cell colony formation assay\nFour hundred cells (HCT116) were plated in 60 mm Petri dishes containing 2.7 mL of medium (modified McCoy's 5a medium containing 10% fetal bovine serum and 100 units/mL penicillin and […] streptomycin). The cells were incubated in a CO2 incubator at 37 °C for 5 h for attachment to the bottom of Petri dishes. The compounds identified in Example 2 were made up fresh in medium at ten times the final concentration, and then 0.3 mL of this stock solution was added to the 2.7 mL of medium in the dish. The cells were then incubated with drugs for 72 h at 37 ° C. At the end of incubation the drug-containing media were decanted, the dishes were rinsed with 4 mL of Hank's Balance Salt Solution (HBSS), 5 mL of fresh medium was added, and the dishes were returned to the incubator for colony formation. The cell colonies were counted using a colony counter after incubation for 7 days.", "units": {"IC50": "nM"}, "values": [
      {"compound": "CCOC(=O)OC1C(=O)C2(C)C(O)CC3OCC3(OC(C)=O)C2C(OC(=O)c2ccccc2)C2(O)CC(OC(=O)C(O)C(C=C(C)C)NC(=O)OCC(C)C)C(C)=C1C2(C)C", "note": "(centres unmarked) [Compound 5155]", "IC50": "< 10"},
      {"compound": "CCCC(=O)NC(c1cccs1)C(O)C(=O)OC1CC2(O)C(OC(=O)c3ccccc3)C3C4(OC(C)=O)COC4CC(O)C3(C)C(=O)C(OC(=O)OCC)C(=C1C)C2(C)C", "note": "(centres unmarked) [Compound 3155]", "IC50": "< 1"},
      {"compound": "COC(=O)OC1C(=O)C2(C)C(O)CC3OCC3(OC(C)=O)C2C(OC(=O)c2ccccc2)C2(O)CC(OC(=O)C(O)C(NC(=O)OC(C)(C)C)C3CCC3)C(C)=C1C2(C)C", "note": "(centres unmarked) [Compound 2077]", "IC50": "< 10"},
      {"compound": "CC=CC(=O)NC(c1ccco1)C(O)C(=O)OC1CC2(O)C(OC(=O)c3ccccc3)C3C4(OC(C)=O)COC4CC(O)C3(C)C(=O)C(OC(=O)OCC)C(=C1C)C2(C)C", "note": "(centres unmarked) [Compound 4000]", "IC50": "< 1"},
      {"compound": "COC(=O)OC1C(=O)C2(C)C(O)CC3OCC3(OC(C)=O)C2C(OC(=O)c2ccccc2)C2(O)CC(OC(=O)C(O)C(NC(=O)OC(C)(C)C)c3cccs3)C(C)=C1C2(C)C", "note": "(centres unmarked) [Compound 2044]", "IC50": "< 1"},
      {"compound": "COC(=O)OC1C(=O)C2(C)C(O)CC3OCC3(OC(C)=O)C2C(OC(=O)c2ccccc2)C2(O)CC(OC(=O)C(O)C(NC(=O)OC(C)(C)C)c3ccsc3)C(C)=C1C2(C)C", "note": "(centres unmarked) [Compound 2050]", "IC50": "< 1"},
      {"compound": "CCOC(=O)OC1C(=O)C2(C)C(O)CC3OCC3(OC(C)=O)C2C(OC(=O)c2ccccc2)C2(O)CC(OC(=O)C(O)C(NC(=O)OC(C)C)c3cccs3)C(C)=C1C2(C)C", "note": "(centres unmarked) [Compound 2999]", "IC50": "< 1"},
      {"compound": "CCOC(=O)OC1C(=O)C2(C)C(O)CC3OCC3(OC(C)=O)C2C(OC(=O)c2ccccc2)C2(O)CC(OC(=O)C(O)C(NC(=O)OC(C)(C)C)c3ccncc3)C(C)=C1C2(C)C", "note": "(centres unmarked) [Compound 1811]", "IC50": "< 1"},
      {"compound": "CCOC(=O)OC1C(=O)C2(C)C(O)CC3OCC3(OC(C)=O)C2C(OC(=O)c2ccccc2)C2(O)CC(OC(=O)C(O)C(NC(=O)OC(C)(C)C)c3ccc([N+](=O)[O-])cc3)C(C)=C1C2(C)C", "note": "(centres unmarked) [Compound 1866]", "IC50": "< 1"},
      {"compound": "CCOC(=O)OC1C(=O)C2(C)C(O)CC3OCC3(OC(C)=O)C2C(OC(=O)c2ccccc2)C2(O)CC(OC(=O)C(O)C(NC(=O)c3ccccc3)c3ccco3)C(C)=C1C2(C)C", "note": "(centres unmarked) [Compound 4090]", "IC50": "< 1"},
      {"compound": "CCOC(=O)OC1C(=O)C2(C)C(O)CC3OCC3(OC(C)=O)C2C(OC(=O)c2ccccc2)C2(O)CC(OC(=O)C(O)C(NC(=O)OC(C)(C)C)c3ccsc3)C(C)=C1C2(C)C", "note": "(centres unmarked) [Compound 1841]", "IC50": "< 1"},
      {"compound": "CCOC(=O)OC1C(=O)C2(C)C(O)CC3OCC3(OC(C)=O)C2C(OC(=O)c2ccccc2)C2(O)CC(OC(=O)C(O)C(NC(=O)OC(C)(C)C)c3ccccn3)C(C)=C1C2(C)C", "note": "(centres unmarked) [Compound 1799]", "IC50": "< 1"},
      {"compound": "CCOC(=O)OC1C(=O)C2(C)C(O)CC3OCC3(OC(C)=O)C2C(OC(=O)c2ccccc2)C2(O)CC(OC(=O)C(O)C(NC(=O)OC(C)(C)C)c3cccnc3)C(C)=C1C2(C)C", "note": "(centres unmarked) [Compound 1808]", "IC50": "< 10"},
      {"compound": "CCOC(=O)OC1C(=O)C2(C)C(O)CC3OCC3(OC(C)=O)C2C(OC(=O)c2ccccc2)C2(O)CC(OC(=O)C(O)C(NC(=O)c3cccs3)c3cccs3)C(C)=C1C2(C)C", "note": "(centres unmarked) [Compound 3020]", "IC50": "< 1"},
      {"compound": "CCOC(=O)OC1C(=O)C2(C)C(O)CC3OCC3(OC(C)=O)C2C(OC(=O)c2ccccc2)C2(O)CC(OC(=O)C(O)C(NC(=O)OCC(C)C)c3cccs3)C(C)=C1C2(C)C", "note": "(centres unmarked) [Compound 3003]", "IC50": "< 10"},
      {"compound": "CCCC(=O)NC(c1ccco1)C(O)C(=O)OC1CC2(O)C(OC(=O)c3ccccc3)C3C4(OC(C)=O)COC4CC(O)C3(C)C(=O)C(OC(=O)OCC)C(=C1C)C2(C)C", "note": "(centres unmarked) [Compound 3929]", "IC50": "< 1"},
      {"compound": "CCOC(=O)OC1C(=O)C2(C)C(O)CC3OCC3(OC(C)=O)C2C(OC(=O)c2ccccc2)C2(O)CC(OC(=O)C(O)C(NC(=O)C(C)C)c3ccco3)C(C)=C1C2(C)C", "note": "(centres unmarked) [Compound 6466]", "IC50": "< 10"},
      {"compound": "CCOC(=O)OC1C(=O)C2(C)C(O)CC3OCC3(OC(C)=O)C2C(OC(=O)c2ccccc2)C2(O)CC(OC(=O)C(O)C(NC(=O)c3ccco3)c3cccs3)C(C)=C1C2(C)C", "note": "(centres unmarked) [Compound 3011]", "IC50": "< 1"},
      {"compound": "CCOC(=O)OC1C(=O)C2(C)C(O)CC3OCC3(OC(C)=O)C2C(OC(=O)c2ccccc2)C2(O)CC(OC(=O)C(O)C(NC(=O)OC(C)(C)C)c3ccco3)C(C)=C1C2(C)C", "note": "(centres unmarked) [Compound 1822]", "IC50": "< 1"},
      {"compound": "CCOC(=O)OC1C(=O)C2(C)C(O)CC3OCC3(OC(C)=O)C2C(OC(=O)c2ccccc2)C2(O)CC(OC(=O)C(O)C(NC(=O)OCC(C)C)c3ccco3)C(C)=C1C2(C)C", "note": "(centres unmarked) [Compound 3181]", "IC50": "< 1"},
      {"compound": "COC(=O)OC1C(=O)C2(C)C(O)CC3OCC3(OC(C)=O)C2C(OC(=O)c2ccccc2)C2(O)CC(OC(=O)C(O)C(NC(=O)OC(C)(C)C)c3ccc([N+](=O)[O-])cc3)C(C)=C1C2(C)C", "note": "(centres unmarked) [Compound 2088]", "IC50": "< 1"},
      {"compound": "COC(=O)OC1C(=O)C2(C)C(O)CC3OCC3(OC(C)=O)C2C(OC(=O)c2ccccc2)C2(O)CC(OC(=O)C(O)C(C=C(C)C)NC(=O)OC(C)(C)C)C(C)=C1C2(C)C", "note": "(centres unmarked) [Compound 1999]", "IC50": "< 1"},
      {"compound": "CCOC(=O)OC1C(=O)C2(C)C(O)CC3OCC3(OC(C)=O)C2C(OC(=O)c2ccccc2)C2(O)CC(OC(=O)C(O)C(NC(=O)OC(C)C)c3ccco3)C(C)=C1C2(C)C", "note": "(centres unmarked) [Compound 3963]", "IC50": "< 1"},
      {"compound": "CCOC(=O)OC1C(=O)C2(C)C(O)CC3OCC3(OC(C)=O)C2C(OC(=O)c2ccccc2)C2(O)CC(OC(=O)C(O)C(NC(=O)c3cccs3)c3ccco3)C(C)=C1C2(C)C", "note": "(centres unmarked) [Compound 4088]", "IC50": "< 10"},
      {"compound": "CCOC(=O)OC1C(=O)C2(C)C(O)CC3OCC3(OC(C)=O)C2C(OC(=O)c2ccccc2)C2(O)CC(OC(=O)C(O)C(NC(=O)c3ccccc3)c3cccs3)C(C)=C1C2(C)C", "note": "(centres unmarked) [Compound 2972]", "IC50": "< 10"},
      {"compound": "COC(=O)OC1C(=O)C2(C)C(O)CC3OCC3(OC(C)=O)C2C(OC(=O)c2ccccc2)C2(O)CC(OC(=O)C(O)C(NC(=O)OC(C)(C)C)c3ccccc3)C(C)=C1C2(C)C", "note": "(centres unmarked) [Compound 2092]", "IC50": "< 1"},
      {"compound": "CCOC(=O)OC1C(=O)C2(C)C(O)CC3OCC3(OC(C)=O)C2C(OC(=O)c2ccccc2)C2(O)CC(OC(=O)C(O)C(NC(=O)c3cccnc3)c3cccs3)C(C)=C1C2(C)C", "note": "(centres unmarked) [Compound 3300]", "IC50": "< 10"},
      {"compound": "COC(=O)OC1C(=O)C2(C)C(O)CC3OCC3(OC(C)=O)C2C(OC(=O)c2ccccc2)C2(O)CC(OC(=O)C(O)C(NC(=O)OC(C)(C)C)c3ccncc3)C(C)=C1C2(C)C", "note": "(centres unmarked) [Compound 2020]", "IC50": "< 1"},
      {"compound": "COC(=O)OC1C(=O)C2(C)C(O)CC3OCC3(OC(C)=O)C2C(OC(=O)c2ccccc2)C2(O)CC(OC(=O)C(O)C(NC(=O)OC(C)(C)C)c3ccccn3)C(C)=C1C2(C)C", "note": "(centres unmarked) [Compound 2002]", "IC50": "< 1"},
      {"compound": "CCOC(=O)OC1C(=O)C2(C)C(O)CC3OCC3(OC(C)=O)C2C(OC(=O)c2ccccc2)C2(O)CC(OC(=O)C(O)C(C=C(C)C)NC(=O)OC(C)(C)C)C(C)=C1C2(C)C", "note": "(centres unmarked) [Compound 1788]", "IC50": "< 1"},
      {"compound": "COC(=O)OC1C(=O)C2(C)C(O)CC3OCC3(OC(C)=O)C2C(OC(=O)c2ccccc2)C2(O)CC(OC(=O)C(O)C(NC(=O)OC(C)(C)C)C(C)C)C(C)=C1C2(C)C", "note": "(centres unmarked) [Compound 2062]", "IC50": "< 10"},
      {"compound": "COC(=O)OC1C(=O)C2(C)C(O)CC3OCC3(OC(C)=O)C2C(OC(=O)c2ccccc2)C2(O)CC(OC(=O)C(O)C(NC(=O)OC(C)(C)C)c3cccnc3)C(C)=C1C2(C)C", "note": "(centres unmarked) [Compound 2011]", "IC50": "< 10"},
      {"compound": "CCOC(=O)OC1C(=O)C2(C)C(O)CC3OCC3(OC(C)=O)C2C(OC(=O)c2ccccc2)C2(O)CC(OC(=O)C(O)C(NC(=O)c3ccccn3)c3cccs3)C(C)=C1C2(C)C", "note": "(centres unmarked) [Compound 3433]", "IC50": 22.3},
      {"compound": "CCOC(=O)OC1C(=O)C2(C)C(O)CC3OCC3(OC(C)=O)C2C(OC(=O)c2ccccc2)C2(O)CC(OC(=O)C(O)C(NC(=O)OC(C)(C)C)C3CCC3)C(C)=C1C2(C)C", "note": "(centres unmarked) [Compound 1855]", "IC50": "< 10"},
      {"compound": "CCOC(=O)OC1C(=O)C2(C)C(O)CC3OCC3(OC(C)=O)C2C(OC(=O)c2ccccc2)C2(O)CC(OC(=O)C(O)C(NC(=O)OC(C)(C)C)C3CC3)C(C)=C1C2(C)C", "note": "(centres unmarked) [Compound 5171]", "IC50": "< 1"}
    ]}
  ]
}
